Columns and labels:
[1] = system: human epidermal keratinocyte (HEK), human dermal fibroblast (hF), squamous cell carcinoma (A431), malignant melanoma (TXM 13); test: Fluorescence microscopy of PpIX in cell lines (FIG. 5); type: cell-based; conditions: normal and cancer cell lines, fluorescence microscope
Experimental: 5. Observation Under Fluorescence Microscope
Each cell line and ICR mouse skin tissue were treated with the ALA esters of the present invention, and the regions where PpxIX was expressed were observed under a fluorescence microscope.
The normal cell lines, human epidermal keratinocytes (HEK) and human dermal fibroblasts (hF) and the cancer cell lines squamous cell carcinoma A431 and malignant melanoma TXM13 were treated with […] of the ALA esters of the present invention or ALA, followed by monitoring the fluorescence of the synthesized PpIX under a fluorescence microscope.

[2] = system: skin of ICR mice (epidermis, sebaceous gland); test: Cell death in skin tissue after ointment and LED irradiation, H&E (FIGS. 9, 10); type: in vivo
Experimental: Ointments comprising ALA or the ALA esters of the present invention at various concentrations (5˜15%) were applied in a predetermined amount ([…]) to the back of shaved ICR mice.
1 and 4 hours after the application, the back was irradiated with LED visible light (dose 25 J/cm^2).
24, 48 and 72 hours after the irradiation, skin samples were taken from the back of the mice, stained with hematoxylin-eosin (H&E) and observed for cell death.

[3] = system: Human dermal fibroblast (hF); test: Cytotoxicity test (cell survival), MTT assay, hF; type: cell-based; conditions: 24 hours
Experimental: (§1) 3. Cytotoxicity Test (Cell Survival Test)
(§2) Cytotoxicity was conducted through an MTT assay (Chemicon, Serologicals Corporation, USA) as follows.
(§3) Cells were seeded at a density of 3×10^4 cells/well in 96-well plates (Nunc Do, Denmark).
(§4) When the cells were at a confluence of about 60˜70%, 24 hours after seeding, the media was exchanged for 100 μl of fresh, serum-free media containing various respective concentrations of ALA or ALA-ester, after which the cells were incubated for an additional 24 hours.
(§5) An MTT solution (0.5 mg/mL) was added in an amount of […] to each well, followed by incubation for 4 hours to form formazan crystals. A color-developing solution (isopropanol with 0.04 N HCl) was added in an amount of […] per well to solubilize the formazan crystals.
(§6) The plates were measured for absorbance at 570 nm using an ELISA reader (EMAX, Molecular Device, USA).
(2) Human Dermal Fibroblast (hF)

[4] = system: Malignant melanoma (TMX 13); test: Cytotoxicity test (cell survival), MTT assay, TXM 13; type: cell-based; conditions: 24 hours
Experimental: as §1, §2, §3, §4, §5, §6
(4) Malignant Melanoma (TMX 13)

Each cell line = test: Apoptosis and cell death by Annexin V-FITC/PI flow cytometry after visible light (FIG. 8); type: cell-based
Experimental: 6. Research into Apoptosis and Cell Death A. Cell Line Each cell line cultured in 6-well plates was treated with ALA or ALA esters of the present invention, irradiated with visible light from an LED, and stained with Annexin V-FITC and PI (Annexin V-FITC Apoptosis detection Kit, BD) before the measurement of apoptosis using flow cytometry (FACSCalibur, BD, USA).

[5] = system: Squamous cell carcinoma (A431); test: Cytotoxicity test (cell survival), MTT assay, A431; type: cell-based; conditions: 24 hours
Experimental: as §1, §2, §3, §4, §5, §6
(3) Squamous Cell Carcinoma (A431)

[6] = system: Human epidermal keratinocyte (HEK); test: Cytotoxicity test (cell survival), MTT assay, HEK; type: cell-based; conditions: 24 hours; for MTT absorbance (OD): 570 nm; for Cell survival Avg (%) ± SD (%): Table 3
Experimental: as §1, §2, §3, §4, §5, §6
(1) Human Epidermal Keratinocyte (HEK)
Cell survival of the human epidermal keratinocytes treated with ALA esters of the present invention and with ALA was compared. The results are summarized in Tables 1 and 2, which are represented in different manners depending on the measurements.

[7] = system: human epithelium keratocyte (HEK), human dermal fibroblast (hF), squamous cell carcinoma (A431), malignant melanoma (TXM13); test: Fluorescence spectroscopy of PpIX synthesis in all cell lines (FIG. 2); type: cell-based; conditions: range from 0.01 to 1 mM, 4 hours incubation
Experimental: 4. Fluorescence Spectroscopy
The synthesis of PpIX, induced by ALA and unsaturated alkyl esters of ALA in cells and skin tissues, was quantified using fluorescence spectroscopy.
The intensity of PpIX was measured on a fluorescence spectrophotometer (Uvikon, model 943) with excitation at 408 nm.
Each cell line was plated at a density of 2×10^5 cells in a 10 cm^2-dish (Falcon), and when the cells reached a confluent state of 70˜80%, serum-free media containing various concentrations (0.001˜1 mM) of ALA or ALA esters was added to the cells, followed by incubation for 4 hours.
After being washed once with PBS, the cells were detached with a 50% methanol solution containing 1M […] (HClO4) and scraped off using a Costar cell scraper.
The cells thus harvested were incubated for 5 min and centrifuged.
The fluorescence of the supernatant thus obtained was determined using a spectrofluorometer with excitation at 405 nm and emission at 605 nm.
The results are graphed in FIGS. 1 and 2.

[8] = system: all of the cells except for HEK (hF, A431, TXM 13); test: Cytotoxicity test (MTT), summary for all of the cells except for HEK; type: cell-based; conditions: text summary of the tables
Experimental: as §1, §2, §3, §4, §5, §6

SMILES: NCC(=O)CCC(=O)O [ALA, 5-Aminolevulinic acid]
- PpIX fluorescence in cytoplasm [1]: can induce the synthesis of PpIX in both normal and cancer cell lines
- Epidermis histology (H&E) after irradiation ([2]; 24 hours after visible light 25 J/cm^2, FIG. 9A): apoptosis or necrosis of the epidermis
- Sebaceous gland morphology after irradiation ([2]; 24 hours after visible light 25 J/cm^2, FIG. 10): destroyed partially or wholly
- Cell survival Avg (%) ± SD (%) ([3]; 0.01 mM): 109.74 ± 11.55%
- Cell survival Avg (%) ± SD (%) ([3]; 0.05 mM): 125.18 ± 14.08%
- Cell survival Avg (%) ± SD (%) ([3]; 0.1 mM): 125.27 ± 16.1%
- Cell survival Avg (%) ± SD (%) ([3]; 0.5 mM): 95.218 ± 9.47%
- Cell survival Avg (%) ± SD (%) ([3]; 1 mM): 99.89 ± 18.3%
- Cell survival Avg (%) ± SD (%) ([3]; 2 mM): 97.66 ± 9.45%
- Cell survival Avg ± SD (%) ([4]; TXM 13, 0.01 mM): 100 ± 10.22%
- Cell survival Avg ± SD (%) ([4]; TXM 13, 0.05 mM): 93.12 ± 5.82%
- Cell survival Avg ± SD (%) ([4]; TXM 13, 0.1 mM): 86.66 ± 6.95%
- Cell survival Avg ± SD (%) ([4]; TXM 13, 0.5 mM): 83.75 ± 9.57%
- Cell survival Avg ± SD (%) ([4]; TXM 13, 1 mM): 89.91 ± 6.33%
- Cell survival Avg ± SD (%) ([4]; TXM 13, 2 mM): 93.6 ± 5.13%
- Photo-induced apoptosis (Annexin V/PI) (Each cell line; 1 mM, then irradiation 5-20 J/cm^2, FIGS. 8C and D): induced the cells to undergo apoptosis (Annexin V+/PI−) or the late stage of apoptosis (Annexin V+/PI+)
- Cell survival (flow cytometry) (Each cell line; treated but with no irradiation with visible light, FIGS. 8A and B): ≥ 85%
- Cell survival Avg (%) ± SD (%) ([5]; A431, 0.01 mM): 102.99 ± 0.71%
- Cell survival Avg (%) ± SD (%) ([5]; A431, 0.05 mM): 104.98 ± 0.35%
- Cell survival Avg (%) ± SD (%) ([5]; A431, 0.1 mM): 106.79 ± 0.15%
- Cell survival Avg (%) ± SD (%) ([5]; A431, 0.5 mM): 81.6 ± 6.16%
- Cell survival Avg (%) ± SD (%) ([5]; A431, 1 mM): 84.17 ± 5.12%
- Cell survival Avg (%) ± SD (%) ([5]; A431, 2 mM): 82.63 ± 2.44%
- MTT absorbance (OD) ([6]; 0.01 mM): 3.428 OD
- Cell survival Avg (%) ± SD (%) ([6]; 0.01 mM): 131.83 ± 0.9%
- MTT absorbance (OD) ([6]; 0.05 mM): 3.318 OD
- Cell survival Avg (%) ± SD (%) ([6]; 0.05 mM): 112.32 ± 0.7%
- MTT absorbance (OD) ([6]; 0.1 mM): 3.457 OD
- Cell survival Avg (%) ± SD (%) ([6]; 0.1 mM): 132.21 ± 0.35%
- MTT absorbance (OD) ([6]; 0.5 mM): 3.285 OD
- Cell survival Avg (%) ± SD (%) ([6]; 0.5 mM): 103.43 ± 0.15%
- MTT absorbance (OD) ([6]; 1 mM): 2.802 OD
- Cell survival Avg (%) ± SD (%) ([6]; 1 mM): 100.94 ± 6.16%
- MTT absorbance (OD) ([6]; 2 mM): 2.179 OD
- Cell survival Avg (%) ± SD (%) ([6]; 2 mM): 84.9 ± 5.12%
- MTT absorbance (OD) ([6]; 5 mM): 1.659 OD
- activity at 10 µM ([6]; Homo sapiens, HEK001, 0.01 mM, Table 2, read-out: Cell survival (% of control C, in brackets)): 97.6%
- activity at 2000 µM ([6]; Homo sapiens, HEK2, 2 mM, Table 2, read-out: Cell survival (% of control C, in brackets)): 62.1%
- activity at 50 µM ([6]; Homo sapiens, Keratinocyte, 0.05 mM, Table 2, read-out: Cell survival (% of control C, in brackets)): 94.5%
- activity at 100 µM ([6]; Homo sapiens, Keratinocyte, 0.1 mM, Table 2, read-out: Cell survival (% of control C, in brackets)): 98.5%
- activity at 500 µM ([6]; Homo sapiens, Keratinocyte, 0.5 mM, Table 2, read-out: Cell survival (% of control C, in brackets)): 92.8%
- activity at 1000 µM ([6]; Homo sapiens, Keratinocyte, 1 mM, Table 2, read-out: Cell survival (% of control C, in brackets)): 79.7%
- activity at 5000 µM ([6]; Homo sapiens, Keratinocyte, 5 mM, Table 2, read-out: Cell survival (% of control C, in brackets)): 47.2%
- PpIX synthesis, dose dependence [7]: increase in a dose-dependent manner
- Cell survival [8]: ≥ 70%

— patent publication US8198325B2, “Unsaturated alkyl esters of 5-aminolevulinic acid, their preparation and their use” (Industry Foundation of Chonnam National University, priority 2006, dated 2012)
